{"source": "patent US11648223B2", "about": "“Receptor subtype and function selective retinoid and rexinoid compounds in combination with immune modulators for cancer immunotherapy” (Io Therapeutics, Inc., priority 2016, dated 2023)", "key": {"[1]": {"system": "CD4+ T cells", "test": "in vivo T cell differentiation in mice (FoxP3 expression in CD4+ T cells of blood and spleen)", "parameters": "species or system mouse", "details": "in vivo assay", "procedure": "To expand on the finding above, the in vivo effects of a RARα selective agonist on T cell differentiation was evaluated in a mouse model. Mice were treated with 100 μg of compound 5183 (a RARα agonist) or an equivalent volume of DMSO (vehicle control) every other day for 10 days. Lympocytes from the blood and spleen were then isolated and FoxP3 expression in CD4^+ T cells was assessed."}, "[2]": {"system": "Treg cell", "test": "in vitro Treg cell differentiation from naive CD4+ T cells (FoxP3-GFP, flow cytometry)", "type": "cell-based, mouse", "details": "in vitro assay", "procedure": "(§1) To determine whether a RARα selective agonist could affect T cell differentiation, T cells were incubated with a RARα selective agonist to determine its effect on Foxp3 expression. Naive CD4^+ […] cells were purified from a Foxp3-GFP mouse using flow cytometry by sorting and isolating based upon a GFP^+ phenotype. These cells were activated polyclonally with αCD3 in vitro in the presence of IL-2 and TGF-β. These cells were then cultured in media with various concentrations of compound 5183 (a RARα selective agonist) and the expression of FoxP3-GFP was analyzed by flow cytometry. The RARα selective agonist compound 5183 enhanced differentiation of immunosuppressive Treg cells and inhibited differentiation of inflammatory TH17 cells from naëve T cells in vitro (Table 2)."}, "[3]": {"system": "Th17 cell", "test": "in vitro Th17 cell differentiation from naive T cells", "type": "cell-based, mouse", "details": "in vitro assay", "procedure": "as §1"}, "[4]": {"system": "B16F10 tumor cells", "test": "B16F10 melanoma engrafted C57BL/6 mice, survival", "type": "in vivo", "procedure": "The anti-tumor effects of anti-CTLA-4 antibody treatment combined with 10 nM […] agonist (AGN204647 (IRX4647)) are examined in C57BL/6 mice engrafted with B16F10 tumor cells."}, "[5]": {"system": "FoxP3+ Treg cells", "test": "formation of FoxP3+ Treg cells (FIG. 3)", "type": "cell-based"}, "[6]": {"system": "Th 17 cells", "test": "formation of Th17 cells (FIG. 3)", "type": "cell-based"}, "[7]": {"details": "combination with anti-CTLA-4 antibody"}}, "data": [{"smiles": "CCOc1c(Br)cc(C(=O)Nc2ccc(C(=O)O)cc2)cc1C(=O)c1ccc(C)cc1", "note": "[AGN196996]", "values": [{"measurement": "Th17 cell numbers", "setting": "[1]", "result": "increases Th17 cell numbers"}, {"measurement": "Treg cell numbers", "setting": "[1]", "result": "decreases Treg cell numbers"}, {"measurement": "Treg cell numbers", "setting": "[2]", "result": "decreases Treg cell numbers"}, {"measurement": "Th17 cell numbers", "setting": "[3]", "result": "increases Th17 cell numbers"}]}, {"smiles": "CC1(C)CCC(C)(C)c2cc(C(/C=C/c3cccc(C(=O)O)c3)=N/O)ccc21", "note": "[AGN204647]", "values": [{"measurement": "survival rate at 50 days", "setting": "[4]; agent alone, vehicles only 0%", "result": 30, "unit": "%"}, {"measurement": "survival at 50 days", "setting": "[4]; combination of anti-CTLA-4 antibody and 10 nM RARγ agonist AGN204647", "result": 100, "unit": "%"}, {"measurement": "resistance of surviving mice to tumor re-challenge", "setting": "[4]; [7]", "result": "resistant to re-challenge with twice the dose of live tumor cells"}, {"measurement": "toxicity", "setting": "[4]; [7]", "result": "without signs of acute or delayed toxicity"}]}, {"smiles": "CC(/C=C/[C@@H]1C[C@]1(C)c1ccc2c(c1)C(C)(C)CCC2(C)C)=C\\C(=O)O", "note": "[IRX4204]", "values": [{"measurement": "formation of FoxP3+ Treg cells", "setting": "[5]", "result": "promotes the formation of FoxP3+ Treg cells"}, {"measurement": "formation of Th 17 cells", "setting": "[6]", "result": "inhibits the formation of Th 17 cells"}]}]}
